System: 922993-354-T-J3-PDC complex spheroids, viability
Assay: Anticancer human tumor 922993-354-T-J3-PDC patient-derived endometrial carcinoma cell line growth inhibition [GQUAD]
Details: for IC50: curve of first compound; for viability, T/C: stronger effect = lower value
Summary of the method: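 Tumor cells were grown as complex spheroids with HUVEC endothelial cells and mesenchymal stem cells as stroma. G-quadruplex stabilizers were combined with targeted agents over half-log dilutions from near the clinical Cmax, or from 10 microM.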

[1] = second compound 0.0316 µM, first compound 0.0316 µM
[2] = second compound 0.0316 µM, first compound 0.1 µM
[3] = second compound 0.0316 µM, first compound 0.316 µM
[4] = second compound 0.0316 µM, first compound 1 µM
[5] = second compound 0.0316 µM, first compound 3.16 µM
[6] = second compound 0.0316 µM, first compound 10 µM
[7] = second compound 0.1 µM, first compound 0.0316 µM
[8] = second compound 0.1 µM, first compound 0.1 µM
[9] = second compound 0.1 µM, first compound 0.316 µM
[10] = second compound 0.1 µM, first compound 1 µM
[11] = second compound 0.1 µM, first compound 3.16 µM
[12] = second compound 0.1 µM, first compound 10 µM
[13] = second compound 0.316 µM, first compound 0.0316 µM
[14] = second compound 0.316 µM, first compound 0.1 µM
[15] = second compound 0.316 µM, first compound 0.316 µM
[16] = second compound 0.316 µM, first compound 1 µM
[17] = second compound 0.316 µM, first compound 3.16 µM
[18] = second compound 0.316 µM, first compound 10 µM
[19] = second compound 1 µM, first compound 0.0316 µM
[20] = second compound 1 µM, first compound 0.1 µM
[21] = second compound 1 µM, first compound 0.316 µM
[22] = second compound 1 µM, first compound 1 µM
[23] = second compound 1 µM, first compound 3.16 µM
[24] = second compound 1 µM, first compound 10 µM
[25] = second compound 3.16 µM, first compound 0.0316 µM
[26] = second compound 3.16 µM, first compound 0.1 µM
[27] = second compound 3.16 µM, first compound 0.316 µM
[28] = second compound 3.16 µM, first compound 1 µM
[29] = second compound 3.16 µM, first compound 3.16 µM
[30] = second compound 3.16 µM, first compound 10 µM
[31] = second compound 10 µM, first compound 0.0316 µM
[32] = second compound 10 µM, first compound 0.1 µM
[33] = second compound 10 µM, first compound 0.316 µM
[34] = second compound 10 µM, first compound 1 µM
[35] = second compound 10 µM, first compound 3.16 µM
[36] = second compound 10 µM, first compound 10 µM
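Also: spheroids exposed to compounds for seven days.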
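For viability, T/C in this document: 100% = DMSO vehicle control viability.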

With `CC(=O)O[C@H]1C(=O)[C@@]2(C)[C@H]([C@H](OC(=O)c3ccccc3)[C@]3(O)C[C@H](OC(=O)[C@H](O)[C@@H](NC(=O)c4ccccc4)c4ccccc4)C(C)=C1C3(C)C)[C@]1(OC(C)=O)CO[C@@H]1C[C@@H]2O` + Cc1cnc(CNC(=O)c2c(=O)c3ccc(N4CCCN(C)CC4)nc3n3c2sc2ccccc23)cn1 the IC50 (second compound 0.0316 µM) was 8750 nM, the IC50 (second compound 0.1 µM) was 9750 nM and the IC50 (second compound 0.316 µM) was less than 31.6 nM. It also gave an IC50 (second compound 1 µM) of less than 31.6 nM, an IC50 (second compound 3.16 µM) of less than 31.6 nM and an IC50 (second compound 10 µM) of less than 31.6 nM. It also gave a viability, T/C [1] of 84.5%, a viability, T/C [2] of 79.3% and a viability, T/C [3] of 97.9%. It also gave a viability, T/C [4] of 83%, a viability, T/C [5] of 70.7% and a viability, T/C [6] of 47.3%. It also gave a viability, T/C [7] of 59.2%, a viability, T/C [8] of 86.9% and a viability, T/C [9] of 71.6%. The viability, T/C [10] was 59.3%, the viability, T/C [11] was 74.3% and the viability, T/C [12] was 49.5%. The viability, T/C [13] was 54.5%, the viability, T/C [14] was 49.6% and the viability, T/C [15] was 43.3%. It also gave a viability, T/C [16] of 52.7%, a viability, T/C [17] of 73.5% and a viability, T/C [18] of 53.3%. It also gave a viability, T/C [19] of 42.8%, a viability, T/C [20] of 58% and a viability, T/C [21] of 51.3%. For the same compound, the viability, T/C [22] was 46.5%, the viability, T/C [23] was 53% and the viability, T/C [24] was 46%. For the same compound, the viability, T/C [25] was 44.1%, the viability, T/C [26] was 50.6% and the viability, T/C [27] was 45.9%. For the same compound, the viability, T/C [28] was 45.1%, the viability, T/C [29] was 67.6% and the viability, T/C [30] was 60.3%. The viability, T/C [31] was 48.1%, the viability, T/C [32] was 45.4% and the viability, T/C [33] was 40.8%. The viability, T/C [34] was 40.2%, the viability, T/C [35] was 46.5% and the viability, T/C [36] was 46.4%.
`CCCS(=O)(=O)Nc1ccc(F)c(C(=O)c2c[nH]c3ncc(-c4ccc(Cl)cc4)cc23)c1F` + Cc1cnc(CNC(=O)c2c(=O)c3ccc(N4CCCN(C)CC4)nc3n3c2sc2ccccc23)cn1 showed an IC50 (second compound 0.0316 µM) greater than 10000 nM, an IC50 (second compound 0.1 µM) of 777 nM and an IC50 (second compound 0.316 µM) of 37 nM. It also gave an IC50 (second compound 1 µM) of 64.2 nM, an IC50 (second compound 3.16 µM) of less than 31.6 nM and an IC50 (second compound 10 µM) of less than 31.6 nM. For the same compound, the viability, T/C [1] was 93.5%, the viability, T/C [2] was 83.8% and the viability, T/C [3] was 83.3%. For the same compound, the viability, T/C [4] was 78.4%, the viability, T/C [5] was 84.6% and the viability, T/C [6] was 63.8%. The viability, T/C [7] was 60.9%, the viability, T/C [8] was 62.2% and the viability, T/C [9] was 56.1%. The viability, T/C [10] was 45.5%, the viability, T/C [11] was 42.2% and the viability, T/C [12] was 40%. It also gave a viability, T/C [13] of 51.2%, a viability, T/C [14] of 40.9% and a viability, T/C [15] of 42.3%. It also gave a viability, T/C [16] of 47.4%, a viability, T/C [17] of 34.6% and a viability, T/C [18] of 46.4%. It also gave a viability, T/C [19] of 51.4%, a viability, T/C [20] of 52.3% and a viability, T/C [21] of 46.3%. The viability, T/C [22] was 36.8%, the viability, T/C [23] was 47.7% and the viability, T/C [24] was 48.2%. The viability, T/C [25] was 39.7%, the viability, T/C [26] was 47.2% and the viability, T/C [27] was 43.6%. It also gave a viability, T/C [28] of 42%, a viability, T/C [29] of 58% and a viability, T/C [30] of 37.9%. It also gave a viability, T/C [31] of 43.5%, a viability, T/C [32] of 37% and a viability, T/C [33] of 36.9%. For the same compound, the viability, T/C [34] was 35.9%, the viability, T/C [35] was 37.9% and the viability, T/C [36] was 20.1%.
Work on `Cc1[nH]c2ccccc2c1CCNCc1ccc(/C=C/C(=O)NO)cc1` + Cc1cnc(CNC(=O)c2c(=O)c3ccc(N4CCCN(C)CC4)nc3n3c2sc2ccccc23)cn1 yielded an IC50 (second compound 0.0316 µM) greater than 316 nM, an IC50 (second compound 0.1 µM) of 109 nM and an IC50 (second compound 0.316 µM) of less than 0.999 nM. The IC50 (second compound 1 µM) was less than 0.999 nM, the IC50 (second compound 3.16 µM) was less than 0.999 nM and the IC50 (second compound 10 µM) was less than 0.999 nM. For the same compound, the viability, T/C (second compound 0.0316 µM, first compound 0.000999 µM) was 81.9%, the viability, T/C (second compound 0.0316 µM, first compound 0.00316 µM) was 86.5% and the viability, T/C (second compound 0.0316 µM, first compound 0.00999 µM) was 108%. It also gave a viability, T/C [1] of 72.6%, a viability, T/C (second compound 0.0316 µM, first compound 0.0999 µM) of 73.5% and a viability, T/C [3] of 54.3%. It also gave a viability, T/C (second compound 0.1 µM, first compound 0.000999 µM) of 55.7%, a viability, T/C (second compound 0.1 µM, first compound 0.00316 µM) of 64.3% and a viability, T/C (second compound 0.1 µM, first compound 0.00999 µM) of 57.6%. It also gave a viability, T/C [7] of 55.8%, a viability, T/C (second compound 0.1 µM, first compound 0.0999 µM) of 47% and a viability, T/C [9] of 45.4%. It also gave a viability, T/C (second compound 0.316 µM, first compound 0.000999 µM) of 54.2%, a viability, T/C (second compound 0.316 µM, first compound 0.00316 µM) of 33.7% and a viability, T/C (second compound 0.316 µM, first compound 0.00999 µM) of 44.2%. The viability, T/C [13] was 34.7%, the viability, T/C (second compound 0.316 µM, first compound 0.0999 µM) was 40.9% and the viability, T/C [15] was 30.8%. The viability, T/C (second compound 1 µM, first compound 0.000999 µM) was 42.6%, the viability, T/C (second compound 1 µM, first compound 0.00316 µM) was 46.7% and the viability, T/C (second compound 1 µM, first compound 0.00999 µM) was 38.9%. It also gave a viability, T/C [19] of 34.9%, a viability, T/C (second compound 1 µM, first compound 0.0999 µM) of 33.9% and a viability, T/C [21] of 31.2%. It also gave a viability, T/C (second compound 3.16 µM, first compound 0.000999 µM) of 40.9%, a viability, T/C (second compound 3.16 µM, first compound 0.00316 µM) of 48.6% and a viability, T/C (second compound 3.16 µM, first compound 0.00999 µM) of 41.6%. The viability, T/C [25] was 41.7%, the viability, T/C (second compound 3.16 µM, first compound 0.0999 µM) was 29.9% and the viability, T/C [27] was 24.6%. It also gave a viability, T/C (second compound 10 µM, first compound 0.000999 µM) of 36%, a viability, T/C (second compound 10 µM, first compound 0.00316 µM) of 40.3% and a viability, T/C (second compound 10 µM, first compound 0.00999 µM) of 44.8%. For the same compound, the viability, T/C [31] was 30%, the viability, T/C (second compound 10 µM, first compound 0.0999 µM) was 38.9% and the viability, T/C [33] was 6.92%.
